Several values for one entry are separate records, joined by “and”; a condition that tells them apart may be missing. Identical values can stand only once. Counter-ions that a name gives are not always drawn.
Molecular target: 5-hydroxytryptamine receptor 4 (Mus musculus, UniProt P97288)
Sequence (P97288 whole entry): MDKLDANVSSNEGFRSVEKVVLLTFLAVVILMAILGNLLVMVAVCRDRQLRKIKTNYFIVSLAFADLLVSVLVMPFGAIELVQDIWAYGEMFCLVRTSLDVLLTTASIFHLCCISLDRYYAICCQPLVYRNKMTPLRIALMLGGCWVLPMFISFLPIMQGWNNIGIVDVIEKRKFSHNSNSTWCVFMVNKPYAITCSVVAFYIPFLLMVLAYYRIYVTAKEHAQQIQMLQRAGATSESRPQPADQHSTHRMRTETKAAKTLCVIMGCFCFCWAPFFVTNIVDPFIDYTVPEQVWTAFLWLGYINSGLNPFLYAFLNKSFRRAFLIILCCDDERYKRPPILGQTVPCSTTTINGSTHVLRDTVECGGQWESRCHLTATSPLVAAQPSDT

In order of rising Ki:
1. COc1[nH]c2ccc(F)cc2c1C(=O)OCC1CCN(CCNS(C)(=O)=O)CC1 [GR-125487]  0.02 nM
2. Cn1cc(C(=O)OCC2CCN(CCNS(C)(=O)=O)CC2)c2ccccc21 [GR 113808]  0.2 nM
3. COc1cc(N)c(Cl)cc1C(=O)NC1CCN(CCCC(=O)N2CCC(N(C)C)CC2)CC1OC (stereo not given) [4-Amino-5-chloro-N-(1-{4-[4-(dimethylamino)-1-piperidinyl]-4-oxobutyl}-3-methoxy-4-piperidinyl)-2-methoxybenzamide]  2.88 nM
4. CCN(CC)CCOC(=O)c1cc(Cl)c(N)cc1OC [SDZ-205557]  7.76 nM
5. CCn1c(=O)n(C(=O)NC2CC3CCC(C2)N3C)c2ccccc21 (stereo not given) [BIMU 1]  28.8 nM
6. COc1cc(N)c(Cl)cc1C(=O)NC1CCN(CCCOc2ccc(F)cc2)CC1OC (stereo not given) [4-amino-5-chloro-N-(1-(3-(4-fluorophenoxy)propyl)-3-methoxypiperidin-4-yl)-2-methoxybenzamide]  32.4 nM
7. CC(C)n1c(=O)n(C(=O)NC2C[C@H]3CC[C@@H](C2)N3C)c2ccccc21 (stereo not given in full) [BIMU 8]  40.7 nM
8. COc1ccc2[nH]c(=O)n(C(=O)OC3CC4CCC(C3)N4C)c2c1 (stereo not given) [DAU 6285]  55 nM
9. NCCc1c[nH]c2ccc(O)cc12 [[3H]-5-HT]  56.2 nM
10. CN1C2CCC1CC(OC(=O)c1c[nH]c3ccccc13)C2 (stereo not given)  87.1 nM
11. COc1cc(N)c(Cl)cc1C(=O)NC1CCN2CCCC1C2 (stereo not given) [NSC_3035240]  132 nM
12. COc1cc(N)c(Cl)cc1C(=O)NC1CN2CCC1CC2 (stereo not given) [ZACOPRIDE,R]  191 nM
13. COc1ccc2[nH]cc(CCN)c2c1 [tryptamine, 5-Methoxy]  229 nM
14. CCN(CC)CCNC(=O)c1cc(Cl)c(N)cc1OC [4-amino-5-chloro-N-[2-(diethylamino)ethyl]-2-methoxy-benzamide;hydrochloride]  891 nM

NCCc1c[nH]c2ccc(C(N)=O)cc12 [[3H]-5-carboxamidotryptamine] was tested, and the Ki was > 10000 nM and 9770 nM.
